Experimental data as given in patent US20150313228A1, “SYNERGISTIC HERBICIDAL COMBINATIONS AND METHODS OF USE” (priority 2012, published 2015).

Experiments:
Format in all cases: in vivo
[1] = tested on: ryegrass; assay: Pre-emergence application in ryegrass under greenhouse conditions (Example 6); details: 16 days after application
Text: (§1) The following testing protocol was employed to evaluate the pre-emergence application of herbicides and herbicide combinations as described in the following examples unless otherwise specified. The weed species to be treated were planted in 3.5 inch pots containing a 50:50 silt loam:redi-earth soil mix. Immediately after such planting (i.e., pre-emergence), herbicide was applied to the soil mix at the specified application rate using a track sprayer with a flat even nozzle type, 9501E nozzle size, and spray pressure of 165 kPa. All herbicides were incorporated into the germination zone with 0.25 inch of overhead irrigation three days after spraying. Additional sub-irrigation was provided to achieve adequate soil moisture for germination. After the incorporation of the herbicide(s), the pots were only overhead irrigated as needed. Throughout the test period, temperature was maintained from about 20° C. to about 30° C. and relative humidity was maintained at about 30%. The plants were rated visually and percentage of weed control was determined for each treatment at 19 days after herbicide application.
(§2) Pre-emergence application of several herbicides and herbicide combinations was evaluated in ryegrass under greenhouse conditions. The plants were rated visually and percentage of weed control was determined at 16 days after herbicide application. The herbicides and herbicide combinations evaluated are listed in Table 6-A below together with the corresponding percent control data. The data represent an average value (n=6).
The results of the analysis are reported below in Table 6-B (dicamba+metribuzin), Table 6-C(acetochlor+metribuzin), and Table 6-D (acetochlor+dicamba).

[2] = tested on: morning glory; assay: Pre-emergence application in morning glory under greenhouse conditions (Example 2); details: 18 days after application
Text: as §1
as §2, with “morning glory” for “ryegrass”, “18” for “16”, “2-A” for “6-A”
The results of the analysis are reported below in Table 2-B (dicamba+metribuzin), Table 2-C(acetochlor+metribuzin), and Table 2-D (acetochlor+dicamba).

[3] = tested on: sicklepod; assay: Pre-emergence application in sicklepod under greenhouse conditions (Example 4); details: 18 days after application
Text: as §1
as §2, with “sicklepod” for “ryegrass”, “18” for “16”, “4-A” for “6-A”
The results of the analysis are reported below in Table 4-B (dicamba+metribuzin), Table 4-C(acetochlor+metribuzin), and Table 4-D (acetochlor+dicamba).

[4] = tested on: wild Proso millet; assay: Pre-emergence application in wild Proso millet under greenhouse conditions (Example 3); details: 16 days after application
Text: as §1
as §2, with “wild Proso millet” for “ryegrass”, “3-A” for “6-A”
The results of the analysis are reported below in Table 3-B (dicamba+metribuzin), Table 3-C (acetochlor+metribuzin), and Table 3-D (acetochlor+dicamba).

[5] = tested on: Palmer amaranth; assay: Pre-emergence application in Palmer amaranth under greenhouse conditions (Example 1); details: 18 days after application
Text: as §1
as §2, with “Palmer amaranth” for “ryegrass”, “18” for “16”, “1-A” for “6-A”
The results of the analysis are reported below in Table 1-B (dicamba+metribuzin), Table 1-C(acetochlor+metribuzin), and Table 1-D (acetochlor+dicamba).

[6] = tested on: Johnsongrass; assay: Pre-emergence application in Johnsongrass under greenhouse conditions (Example 5); details: 16 days after application
Text: as §1
as §2, with “Johnsongrass” for “ryegrass”, “5-A” for “6-A”
The results of the analysis are reported below in Table 5-B (dicamba+metribuzin), Table 5-C(acetochlor+metribuzin), and Table 5-D (acetochlor+dicamba).

## CCOCN(C(=O)CCl)c1c(C)cccc1CC [Acetochlor, 2-chloro-N-(ethoxymethyl)-6′-ethyl-o-acetotoluidide]
[1]; 840 g/ha
  PERCENT CONTROL: 82.5%
[1]; 1260 g/ha
  PERCENT CONTROL: 86.7%
[2]; 840 g/ha
  PERCENT CONTROL: 5.0%
[2]; 1260 g/ha
  PERCENT CONTROL: 7.5%
[3]; 840 g/ha
  PERCENT CONTROL: 4.0%
[3]; 1260 g/ha
  PERCENT CONTROL: 5.8%
[4]; 840 g/ha
  PERCENT CONTROL: 74.2%
[4]; 1260 g/ha
  PERCENT CONTROL: 84.0%
[5]; 840 g/ha
  PERCENT CONTROL: 65.8%
[5]; 1260 g/ha
  PERCENT CONTROL: 90.8%
[6]; 840 g/ha
  PERCENT CONTROL: 94.8%
[6]; 1260 g/ha
  PERCENT CONTROL: 100.0%

## COc1c(Cl)ccc(Cl)c1C(=O)O [Dicamba, 3,6-dichloro-2-methoxy benzoic acid]
[1]; 280 g/ha
  PERCENT CONTROL: 31.7%
[1]; 560 g/ha
  PERCENT CONTROL: 56.7%
[2]; 280 g/ha
  PERCENT CONTROL: 38.0%
[2]; 560 g/ha
  PERCENT CONTROL: 81.7%
[3]; 280 g/ha
  PERCENT CONTROL: 42.0%
[3]; 560 g/ha
  PERCENT CONTROL: 84.0%
[4]; 280 g/ha
  PERCENT CONTROL: 43.3%
[4]; 560 g/ha
  PERCENT CONTROL: 74.2%
[5]; 280 g/ha
  PERCENT CONTROL: 88.3%
[5]; 560 g/ha
  PERCENT CONTROL: 84.2%
[6]; 280 g/ha
  PERCENT CONTROL: 71.7%
[6]; 560 g/ha
  PERCENT CONTROL: 83.3%

## CSc1nnc(C(C)(C)C)c(=O)n1N [Metribuzin, 4-amino-6-(1,1-dimethylethyl)-3-(methylthio)-1,2,4-triazin-5(4H)-one]
[1]; 420 g/ha
  PERCENT CONTROL: 33.3%
[1]; 840 g/ha
  PERCENT CONTROL: 66.7%
[2]; 420 g/ha
  PERCENT CONTROL: 16.7%
[2]; 840 g/ha
  PERCENT CONTROL: 63.8%
[3]; 420 g/ha
  PERCENT CONTROL: 56.7%
[3]; 840 g/ha
  PERCENT CONTROL: 100.0%
[4]; 420 g/ha
  PERCENT CONTROL: 100.0%
[4]; 840 g/ha
  PERCENT CONTROL: 100.0%
[5]; 420 g/ha
  PERCENT CONTROL: 100.0%
[5]; 840 g/ha
  PERCENT CONTROL: 100.0%
[6]; 420 g/ha
  PERCENT CONTROL: 84.2%
[6]; 840 g/ha
  PERCENT CONTROL: 100.0%
